In patent publication US20240158348A1, “HERBICIDAL CYCLIC AMIDES N-SUBSTITUTED WITH A HALOALKYLSULFONYLANILIDE GROUP” (FMC Corporation, priority 2021, published 2024):

Experiments:
Format in all cases: in vivo
[1] = system: ryegrass, Italian (Italian ryegrass, Lolium multiflorum); assay: Test C preemergence, Italian ryegrass; conditions: 0 is no effect, 100 is complete control
How it was run: (§1)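 Steps: sow in loam soil blended with sand; treat soil preemergence by directed spray, or treat young plants (2–10 cm, one to two leaves) postemergence; hold in greenhouse 10 or 12 days; rate injury visually relative to untreated controls on a 0–100 scale.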

[2] = system: ryegrass, Italian (Italian ryegrass, Lolium multiflorum); assay: Test C postemergence, Italian ryegrass; conditions: visual injury, 0 to 100 scale (0 no effect, 100 complete control)
How it was run: as §1

[3] = system: sedge, umbrella (small-flower umbrella sedge, Cyperus difformis); assay: Test D flooded paddy test, umbrella sedge; parameters: key: 0 = no effect, 100 = complete control; conditions: 250 g ai/ha, Flood; applied to paddy water at 2-leaf stage; visual rating after 13 days; scale 0 (no effect) to 100 (complete control)
How it was run: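 Visual response scores run 0 (no effect) to 100 (complete control), judged against controls 13 days after treatment. Compounds were added to paddy water 3 cm deep over soil, around plants at the 2-leaf stage kept in a greenhouse.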

Structure (SMILES) | Plant response rating (0 to 100 scale), Ryegrass, Italian ([1]; 31 g ai/ha Preemergence) | Plant response rating (0 to 100 scale), Ryegrass, Italian ([1]; 125 g ai/ha Preemergence) | Ryegrass, Italian plant response rating ([2]; 31 g ai/ha Postemergence) | Ryegrass, Italian plant response rating ([2]; 125 g ai/ha Postemergence) | Plant response rating, Sedge, Umbrella [3]
Cc1cc(C)c(N2CCC(OCC3CC3(F)F)C2=O)cc1NS(=O)(=O)C(F)(F)F (stereo not shown) [Compound 41] | 100 | 100 | 30 | 100 | 70
Cc1cc(C)c(N2CCC(OCC3CCCO3)C2=O)cc1NS(=O)(=O)C(F)(F)F (stereo not shown) [Compound 42] | 20 | 90 | 20 | 70 | 90
Cc1c(NS(=O)(=O)C(F)(F)F)cc(N2CCC(OC3CCC3)C2=O)c(C)c1C (stereo not shown) [Compound 45] | 50 | 90 | 0 | 50 | 90
Cc1c(NS(=O)(=O)C(F)(F)F)cc(N2CCC(OC3CC3)C2=O)c(C)c1C (stereo not shown) [Compound 47] | 50 | 90 | 50 | 90 | 95
Cc1c(N2CCC(OC3CCC3)C2=O)cc(N(C(=O)OCC(C)C)S(=O)(=O)C(F)(F)F)c(C)c1C (stereo not shown) [Compound 48] | 60 | 100 | 40 | 60 | 90
Cc1c(N2CCC(OC3CC3)C2=O)cc(N(COC(=O)C(C)(C)C)S(=O)(=O)C(F)(F)F)c(C)c1C (stereo not shown) [Compound 49] | 40 | 100 | 50 | 90 | 90
Cc1c(N2CCC(OC3CCC3)C2=O)cc(N(COC(=O)C(C)(C)C)S(=O)(=O)C(F)(F)F)c(C)c1C (stereo not shown) [Compound 51] | 40 | 100 | 20 | 50 | 90
Cc1cc(C)c(N(COC(=O)C(C)(C)C)S(=O)(=O)C(F)(F)F)cc1N1CCC(OCC2CC2)C1=O (stereo not shown) [Compound 53] | 60 | 100 | 0 | 70 | 98
Cc1cc(C)c(N(COC(=O)C(C)(C)C)S(=O)(=O)C(F)(F)F)cc1N1CCC(OCC2CC2(F)F)C1=O (stereo not shown) [Compound 54] | 0 | 90 | 60 | 70 | 98
Cc1cc(C)c(N(COC(=O)C(C)(C)C)S(=O)(=O)C(F)(F)F)cc1N1CCC(OCC2CCC2)C1=O (stereo not shown) [Compound 56] | 30 | 80 | 0 | 60 | 95
Cc1cc(C)c(N2CCC(OCC3CCCC3)C2=O)cc1NS(=O)(=O)C(F)(F)F (stereo not shown) [Compound 57] | 70 | 90 | 20 | 60 | 95
